US11712444B2, “Compositions and methods of treating neuronal injury” (CHILDREN'S MEDICAL CENTER CORPORATION, priority 2019, dated 2023)
“Also recorded” adds a separate entry of the source.

Assays:
[1] = system: metals in the retina, i.e., copper and zinc; assay: Autometallography (AMG) of metals in the retina after optic nerve crush (ONC); assay type: in vivo, mice; settings: day 1 post ONC; intraocular injection immediately after ONC; TPEN 100 μM, PSP-2 50 μM, PSP-2+Cu 50 μM
Description: Metals in the retina, i.e., copper and zinc, were visualized using autometallography. […] To determine whether copper chelators had any effect on this increase, the selective copper chelator PSP-2 was used. Mice were administered 3 μL of DMSO 1% in PBS (control), 100 μM TPEN (10 mM TPEN stock in DMSO diluted in PBS (DMSO 1%)), 50 μM PSP-2 (5 mM PSP-2 stock in DMSO diluted in PBS (DMSO 1%)), or 50 μM PSP-2+Cu (10 mM PSP-2+Cu in de-O2 water diluted in PBS (DMSO 1%) immediately after unilateral optic nerve crush (ONC). In these studies, the normal, intact retina was used as a reference.
(§1) Experiments were performed in 8 to 9-week-old 129S1/SvImJ male mice (Jackson Laboratory, Bar Harbor, Me.). Mice were anesthetized prior to ONC surgery with ketamine and xylazine. The ONC surgery and euthanization of mice were performed as previously described in U.S. Publication No. 2014/079741, the contents of which are hereby incorporated by reference in their entirety. Briefly, a conjunctival incision was made over the dorsal aspect of one eye, which was then gently rotated downward in the orbit. The orbital muscles were slightly separated to expose the optic nerve at its exit from the globe, which was then crushed for 5 seconds with jewelers' forceps (Dumont number 5) near the back of the eye (within 0.5 mm). […]

retinal ganglion cells = assay: Retinal ganglion cell survival after optic nerve crush (βIII-tubulin positive cells); assay type: in vivo, mice; settings: two weeks post ONC
Description: as §1, with “mm). ONC was performed unilaterally for all autometallography experiments and bilaterally for all regeneration experiments.” for “mm).”
(§2) Axon growth was determined by counting GAP-43-positive axons extending 0.5 and 1 mm from the crush site. The cross-sectional width of the nerve was measured at the 0.5 and 1 mm points. The number of axons per millimeter of nerve width was calculated and then averaged for the number of sections analyzed. The estimated number of axons per nerve was then calculated. Retinal ganglion cell survival was measured as the number of βIII-tubulin positive cells per mm^2.

HT22 cell culture = assay: Glutamate toxicity in HT22 cell culture; assay type: cell-based; settings: PSP-2 50 μM (FIG. 9)
Text: Glutamate toxicity is a model of ferroptotic cell death. Glutamate toxicity and ferroptosis are likely involved in retinal ganglion cell (RGC) death post-optic nerve crush (ONC).

[2] = system: GAP-43-positive axons in the optic nerve; assay: Axon regeneration after optic nerve crush (GAP-43-positive axons); assay type: in vivo, mice
Description: To determine if copper chelation promotes axon regeneration after nerve injury, mice were administered treatments as described in Example 1 after bilateral ONC. […] An antibody against GAP-43 was used to detect growing axons (FIG. 4A-4D).
as §1, with “mm). ONC was performed unilaterally for all autometallography experiments and bilaterally for all regeneration experiments. Treatments were administered unilaterally for all autometallography experiments and bilaterally for all regeneration experiments. Post-ONC treatments were administered by intraocular injection immediately after ONC surgery. Mice were sacrificed with an overdose of anesthesia. Tissue samples were snap-frozen for all autometallography experiments. Mice were perfused with saline followed by 4% paraformaldehyde (PFA) and the tissue samples were post-fixed in PFA for regeneration experiments.” for “mm).”
as §2

[3] = system: astrocyte-rich primary cortical neurons; assay: DTDP (dithiodipyridine) toxicity in astrocyte-rich primary cortical neurons; assay type: cell-based; settings: PSP-2 3 μM (FIG. 8)
Description: FIG. 8 is a bar plot showing that DTDP (dithiodipyridine) toxicity in astrocyte-rich primary cortical neurons was reversed with PSP-2 (3 μM). DTDP is an agent oxidizing metallothioneins. Oxidation of metallothioneins leads to liberation of metals (zinc and copper) and cell death.

[4] = cited from earlier work

c1ccc(CN(CCN(Cc2ccccn2)Cc2ccccn2)Cc2ccccn2)nc1 [TPEN, N, N, N′, N′-tetrakis(2-pyridylmethyl) ethylenediamine, reference compound]
autometallography (AMG) signal in the retina [1]: reduced the autometallography signal

CP(C)(=S)CP(CCP(CP(C)(C)=S)CP(C)(C)=S)CP(C)(C)=S [PSP-2]
survival of retinal ganglion cells (retinal ganglion cells): did not significantly affect survival of retinal ganglion cells; also recorded: did not improve retinal ganglion cell (RGC) survival | glutamate-induced cell death (HT22 cell culture): partially alleviated | axon regeneration, dose dependence ([2]; 2 weeks post ONC, FIG. 7A): improved axon regeneration in a dose-dependent manner | axon regeneration at 0.5 mm distance from the site of ONC ([2]; two weeks post ONC, 0.5 mm, PSP-2 50 μM intraocular): improved axon regeneration | axon regeneration at 1.0 mm distance from the site of ONC ([2]; two weeks post ONC, 1.0 mm, PSP-2 50 μM intraocular): improved axon regeneration | DTDP-induced cell death [3]: reversed | autometallography (AMG) signal in the retina [1]: reduced the autometallography signal; also recorded: reduced metal autometallography (AMG) signal

CP(C)(=S)CP(CP(C)(C)=S)c1ccccc1P(CP(C)(C)=S)CP(C)(C)=S [PhenPS]
dissociation constant, Cu(I) [4]: about 0.6 zM

CP(C)(=S)CP(CP(C)(C)=S)c1cccc2cccc(P(CP(C)(C)=S)CP(C)(C)=S)c12 [naphPS]
dissociation constant, Cu(I) [4]: 0.8 zM
